The source made the active and inactive calls. No cut-off for these calls is given here.
Legend:
[1] = target: Sigma non-opioid intracellular receptor 1 (Cavia porcellus, UniProt Q60492); assay: Displacement of [3H](+)-pentazocine from sigma 1 receptor in guinea pig brain cortex membranes after 120 mins by scintillation counting analysis; type: cell membranes
Mu-type opioid receptor = Mu-type opioid receptor (Cavia porcellus, UniProt P97266); assay: Displacement of [3H]DAMGO from mu opioid receptor in guinea pig brain membranes after 120 mins by scintillation counting analysis; type: cell membranes
Cytochrome P450 3A4 = Cytochrome P450 3A4 (Homo sapiens, UniProt P08684); assay: Inhibition of recombinant human CYP3A4 at 1 uM by fluorescence assay; type: ADME; conditions: recombinant enzyme
[2] = target: Kappa-type opioid receptor (Cavia porcellus) (UniProt P41144); assay: Displacement of [3H]U69,593 from kappa opioid receptor in guinea pig brain membrane at 1 uM after 120 mins by scintillation counting analysis relative to control; type: cell membranes
HepG2 [3] = assay: Cytotoxicity against human HepG2 cells at 1 to 100 uM incubated for 20 hrs under serum free condition by MTT assay; type: cell-based; conditions: hepg2, 20 h
[4] = target: T1, 5-hydroxytryptamine receptor 1A (Homo sapiens) (UniProt P08908); assay: Binding affinity to 5-HT1AR (unknown origin) at 1 uM relative to control
T1 sequence (whole entry): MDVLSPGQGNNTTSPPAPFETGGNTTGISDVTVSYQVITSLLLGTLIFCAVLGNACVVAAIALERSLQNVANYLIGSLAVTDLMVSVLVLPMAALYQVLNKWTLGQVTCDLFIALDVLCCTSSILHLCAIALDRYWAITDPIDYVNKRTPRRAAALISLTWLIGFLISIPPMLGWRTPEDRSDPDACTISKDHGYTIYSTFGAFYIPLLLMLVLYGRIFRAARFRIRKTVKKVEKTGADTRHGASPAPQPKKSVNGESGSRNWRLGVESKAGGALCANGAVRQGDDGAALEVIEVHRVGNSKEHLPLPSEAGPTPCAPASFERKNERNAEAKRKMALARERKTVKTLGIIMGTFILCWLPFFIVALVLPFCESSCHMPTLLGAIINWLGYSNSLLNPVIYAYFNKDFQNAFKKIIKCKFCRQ

[5] = target: Sodium-dependent dopamine transporter (Homo sapiens) (UniProt Q01959); assay: Binding affinity to dopamine transporter (unknown origin) at 1 uM
[6] = target: Sigma non-opioid intracellular receptor 1 (Rattus norvegicus) (UniProt Q9R0C9); assay: Antagonist activity at sigma 1 receptor in rat PC12 cells assessed as suppression of opipramol-induced inhibition of KCl-stimulated intracellular calcium influx at 10 nM preincubated for 5 mins followed by opipramol addition for 5 mins and subsequent KCl-stimulation by fura-2-AM dye based fluorescence assay; type: cell-based
Sus scrofa = species on record: Sus scrofa; assay: Displacement of [3H]-(+)-MK-801 from PCP binding site of NMDA receptor in pig brain cortex membranes up to 1 uM after 120 mins by scintillation counting analysis; type: cell membranes
[7] = target: Delta-type opioid receptor (Rattus norvegicus, UniProt P33533); assay: Displacement of [3H]DPDPE from delta opioid receptor in rat membranes after 120 mins by scintillation counting analysis; type: cell membranes
[8] = target: 5-hydroxytryptamine receptor 2B (Homo sapiens) (UniProt P41595); assay: Binding affinity to 5-HT2BR (unknown origin) at 1 uM relative to control
[9] = target: Sigma non-opioid intracellular receptor 1 (Rattus norvegicus) (UniProt Q9R0C9); assay: Agonist activity at sigma 1 receptor in rat PC12 cells assessed as effect on KCl-induced intracellular calcium flux by fura-2-AM dye based fluorescence assay; type: cell-based
Cytochrome P450 2C19 = Cytochrome P450 2C19 (Homo sapiens, UniProt P33261); assay: Inhibition of recombinant human CYP2C19 at 1 uM by fluorescence assay; type: ADME; conditions: recombinant enzyme
HepG2 [10] = assay: Cytotoxicity against human HepG2 cells at 1 to 100 uM incubated for 20 hrs under serum free condition by neutral red uptake assay; type: cell-based; conditions: hepg2, 20 h
[11] = target: T2, Sigma intracellular receptor 2 (Rattus norvegicus, UniProt Q5U3Y7); assay: Displacement of [3H]-di-o-tolylguanidine from sigma2 receptor in rat liver membranes incubated for 120 mins in the presence of sigma1 receptor ligand (+)-pentazocine by scintillation counting method; type: cell membranes
T2 sequence (Q5U3Y7 whole entry): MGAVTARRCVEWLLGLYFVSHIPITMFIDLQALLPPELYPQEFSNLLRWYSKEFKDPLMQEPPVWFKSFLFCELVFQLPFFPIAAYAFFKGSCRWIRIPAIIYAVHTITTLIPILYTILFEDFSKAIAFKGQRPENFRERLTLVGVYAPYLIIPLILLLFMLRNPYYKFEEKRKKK

[12] = target: Sigma non-opioid intracellular receptor 1 (Homo sapiens, UniProt Q99720); assay: Displacement of [3H](+)-pentazocine from sigma 1 receptor in human RPMI8226 cell membranes incubated for 2 hrs under shaking by scintillation counting analysis
Cytochrome P450 1A2 = target: T3, Cytochrome P450 1A2 (Homo sapiens, UniProt P05177); assay: Inhibition of recombinant human CYP1A2 at 1 uM by fluorescence assay; type: ADME; conditions: recombinant enzyme
T3 sequence (P05177 whole entry): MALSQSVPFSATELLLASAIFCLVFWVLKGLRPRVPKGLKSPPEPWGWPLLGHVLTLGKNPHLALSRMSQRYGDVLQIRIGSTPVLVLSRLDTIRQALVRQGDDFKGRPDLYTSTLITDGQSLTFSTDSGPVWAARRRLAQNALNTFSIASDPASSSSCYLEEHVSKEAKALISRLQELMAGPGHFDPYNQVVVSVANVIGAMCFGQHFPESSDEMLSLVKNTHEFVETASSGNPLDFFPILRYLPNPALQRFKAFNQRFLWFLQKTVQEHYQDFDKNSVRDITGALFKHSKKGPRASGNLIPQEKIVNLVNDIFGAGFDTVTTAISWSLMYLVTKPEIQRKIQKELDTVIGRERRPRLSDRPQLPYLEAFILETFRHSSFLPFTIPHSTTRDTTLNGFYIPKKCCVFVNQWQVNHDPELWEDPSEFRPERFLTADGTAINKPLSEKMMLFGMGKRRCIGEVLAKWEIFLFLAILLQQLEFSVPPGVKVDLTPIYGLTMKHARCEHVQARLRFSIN

[13] = target: T4, Alpha-2A adrenergic receptor (Homo sapiens) (UniProt P08913); assay: Binding affinity to alpha 2a adrenergic receptor (unknown origin) at 1 uM relative to control
T4 sequence (whole entry): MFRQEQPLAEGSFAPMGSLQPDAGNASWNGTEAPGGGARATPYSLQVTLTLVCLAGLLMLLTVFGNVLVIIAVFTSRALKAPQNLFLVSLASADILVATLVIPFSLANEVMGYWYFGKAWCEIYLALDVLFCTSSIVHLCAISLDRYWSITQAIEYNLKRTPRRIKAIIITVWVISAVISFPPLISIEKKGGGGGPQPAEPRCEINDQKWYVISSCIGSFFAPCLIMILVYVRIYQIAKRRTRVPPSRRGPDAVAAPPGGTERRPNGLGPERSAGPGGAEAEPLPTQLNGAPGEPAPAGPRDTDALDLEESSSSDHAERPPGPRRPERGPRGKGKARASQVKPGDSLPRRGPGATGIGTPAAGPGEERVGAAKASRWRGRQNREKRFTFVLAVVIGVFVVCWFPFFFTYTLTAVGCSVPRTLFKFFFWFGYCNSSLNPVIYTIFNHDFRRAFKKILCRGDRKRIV

[14] = Selectivity ratio of Ki for displacement of [3H]DTG from sigma2 receptor in rat liver membranes to Ki for displacement of (+)-[3H]pentazocine from sigma 1 receptor in guinea pig brain cortex membranes; type: cell membranes

Sigma non-opioid intracellular receptor 1 (Rattus norvegicus), sequence (Q9R0C9 whole entry): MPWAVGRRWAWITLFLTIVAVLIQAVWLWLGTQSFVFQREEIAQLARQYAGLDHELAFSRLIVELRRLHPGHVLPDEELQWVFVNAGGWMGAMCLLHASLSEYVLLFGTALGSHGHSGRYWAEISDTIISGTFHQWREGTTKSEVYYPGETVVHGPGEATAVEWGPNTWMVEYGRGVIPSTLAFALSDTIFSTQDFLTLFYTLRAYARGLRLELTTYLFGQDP
5-hydroxytryptamine receptor 2B (Homo sapiens), sequence (P41595 whole entry): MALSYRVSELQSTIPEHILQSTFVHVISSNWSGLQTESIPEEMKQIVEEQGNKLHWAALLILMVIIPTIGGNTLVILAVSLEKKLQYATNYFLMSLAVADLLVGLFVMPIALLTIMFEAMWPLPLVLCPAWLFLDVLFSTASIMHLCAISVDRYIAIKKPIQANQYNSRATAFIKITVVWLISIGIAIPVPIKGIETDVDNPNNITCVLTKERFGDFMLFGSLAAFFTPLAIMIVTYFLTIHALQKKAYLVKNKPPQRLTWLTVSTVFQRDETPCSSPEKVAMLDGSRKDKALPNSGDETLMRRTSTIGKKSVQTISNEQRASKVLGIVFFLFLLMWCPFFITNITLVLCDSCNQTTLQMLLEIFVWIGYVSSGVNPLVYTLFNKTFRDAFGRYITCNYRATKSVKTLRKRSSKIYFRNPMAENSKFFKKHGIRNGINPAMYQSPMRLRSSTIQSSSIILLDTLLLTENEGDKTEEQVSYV
Cytochrome P450 3A4, sequence (P08684 whole entry): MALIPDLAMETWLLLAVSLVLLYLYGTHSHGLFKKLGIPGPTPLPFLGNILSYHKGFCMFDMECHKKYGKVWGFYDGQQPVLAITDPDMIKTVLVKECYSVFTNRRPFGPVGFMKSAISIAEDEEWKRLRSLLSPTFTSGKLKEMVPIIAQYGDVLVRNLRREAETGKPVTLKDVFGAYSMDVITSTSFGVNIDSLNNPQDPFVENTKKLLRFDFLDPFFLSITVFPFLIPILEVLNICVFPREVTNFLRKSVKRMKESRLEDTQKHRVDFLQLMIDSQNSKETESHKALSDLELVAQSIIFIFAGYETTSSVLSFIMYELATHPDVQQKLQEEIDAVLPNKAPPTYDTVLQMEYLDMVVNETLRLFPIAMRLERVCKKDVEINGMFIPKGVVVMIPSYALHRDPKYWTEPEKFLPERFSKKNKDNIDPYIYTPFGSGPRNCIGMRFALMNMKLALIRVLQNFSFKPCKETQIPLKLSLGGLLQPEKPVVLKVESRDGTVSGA
Delta-type opioid receptor, sequence (P33533 whole entry): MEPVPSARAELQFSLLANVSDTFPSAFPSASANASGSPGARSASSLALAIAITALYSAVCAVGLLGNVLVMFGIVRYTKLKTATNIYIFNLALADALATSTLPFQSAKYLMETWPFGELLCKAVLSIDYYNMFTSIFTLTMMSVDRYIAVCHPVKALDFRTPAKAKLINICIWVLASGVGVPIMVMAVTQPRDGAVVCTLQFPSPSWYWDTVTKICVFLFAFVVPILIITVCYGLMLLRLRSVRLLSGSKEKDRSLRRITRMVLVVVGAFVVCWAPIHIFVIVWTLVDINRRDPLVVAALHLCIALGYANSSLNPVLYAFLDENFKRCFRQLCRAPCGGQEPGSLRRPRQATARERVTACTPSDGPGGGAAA
Sigma non-opioid intracellular receptor 1 (Cavia porcellus, UniProt Q60492), sequence (Q60492 whole entry): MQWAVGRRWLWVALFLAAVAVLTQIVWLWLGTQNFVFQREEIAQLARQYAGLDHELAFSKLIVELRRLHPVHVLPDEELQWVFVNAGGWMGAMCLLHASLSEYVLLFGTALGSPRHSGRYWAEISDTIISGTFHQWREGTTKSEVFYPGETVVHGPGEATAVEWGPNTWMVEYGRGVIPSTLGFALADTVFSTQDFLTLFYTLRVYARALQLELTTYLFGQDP
Mu-type opioid receptor, sequence (P97266 whole entry): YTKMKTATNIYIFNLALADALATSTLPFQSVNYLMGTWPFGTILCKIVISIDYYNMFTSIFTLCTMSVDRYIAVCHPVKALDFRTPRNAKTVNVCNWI
Cytochrome P450 2C19, sequence (P33261 whole entry): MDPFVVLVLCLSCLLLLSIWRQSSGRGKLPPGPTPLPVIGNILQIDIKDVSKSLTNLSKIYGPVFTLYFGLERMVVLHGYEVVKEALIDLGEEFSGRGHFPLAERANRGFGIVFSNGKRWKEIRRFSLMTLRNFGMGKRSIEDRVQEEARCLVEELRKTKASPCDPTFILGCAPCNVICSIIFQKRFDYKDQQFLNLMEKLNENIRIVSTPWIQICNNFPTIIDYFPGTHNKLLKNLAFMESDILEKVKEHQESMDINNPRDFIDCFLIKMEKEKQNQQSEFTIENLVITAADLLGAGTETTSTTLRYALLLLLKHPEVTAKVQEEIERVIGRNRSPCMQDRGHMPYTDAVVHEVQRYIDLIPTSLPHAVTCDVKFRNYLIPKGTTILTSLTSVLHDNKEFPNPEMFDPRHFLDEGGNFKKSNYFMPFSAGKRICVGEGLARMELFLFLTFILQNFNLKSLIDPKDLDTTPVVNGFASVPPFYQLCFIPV
Kappa-type opioid receptor (Cavia porcellus), sequence (P41144 whole entry): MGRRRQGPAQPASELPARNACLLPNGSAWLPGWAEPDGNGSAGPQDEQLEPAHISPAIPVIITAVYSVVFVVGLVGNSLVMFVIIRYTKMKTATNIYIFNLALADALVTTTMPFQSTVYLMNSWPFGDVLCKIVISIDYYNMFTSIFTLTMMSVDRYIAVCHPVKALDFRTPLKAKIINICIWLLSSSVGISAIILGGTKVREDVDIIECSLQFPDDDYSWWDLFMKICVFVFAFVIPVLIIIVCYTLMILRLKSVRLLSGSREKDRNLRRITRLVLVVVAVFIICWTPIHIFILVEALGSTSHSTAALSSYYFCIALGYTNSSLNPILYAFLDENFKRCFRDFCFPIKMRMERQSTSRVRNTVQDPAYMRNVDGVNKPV
Sigma non-opioid intracellular receptor 1 (Homo sapiens, UniProt Q99720), sequence (Q99720 whole entry): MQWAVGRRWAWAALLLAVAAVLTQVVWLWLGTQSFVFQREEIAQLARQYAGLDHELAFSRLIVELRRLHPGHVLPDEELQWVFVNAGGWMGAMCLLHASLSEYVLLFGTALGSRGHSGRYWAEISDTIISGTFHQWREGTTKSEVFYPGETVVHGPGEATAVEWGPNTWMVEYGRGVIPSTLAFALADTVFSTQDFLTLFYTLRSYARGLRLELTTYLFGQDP
Sodium-dependent dopamine transporter (Homo sapiens), sequence (Q01959 whole entry): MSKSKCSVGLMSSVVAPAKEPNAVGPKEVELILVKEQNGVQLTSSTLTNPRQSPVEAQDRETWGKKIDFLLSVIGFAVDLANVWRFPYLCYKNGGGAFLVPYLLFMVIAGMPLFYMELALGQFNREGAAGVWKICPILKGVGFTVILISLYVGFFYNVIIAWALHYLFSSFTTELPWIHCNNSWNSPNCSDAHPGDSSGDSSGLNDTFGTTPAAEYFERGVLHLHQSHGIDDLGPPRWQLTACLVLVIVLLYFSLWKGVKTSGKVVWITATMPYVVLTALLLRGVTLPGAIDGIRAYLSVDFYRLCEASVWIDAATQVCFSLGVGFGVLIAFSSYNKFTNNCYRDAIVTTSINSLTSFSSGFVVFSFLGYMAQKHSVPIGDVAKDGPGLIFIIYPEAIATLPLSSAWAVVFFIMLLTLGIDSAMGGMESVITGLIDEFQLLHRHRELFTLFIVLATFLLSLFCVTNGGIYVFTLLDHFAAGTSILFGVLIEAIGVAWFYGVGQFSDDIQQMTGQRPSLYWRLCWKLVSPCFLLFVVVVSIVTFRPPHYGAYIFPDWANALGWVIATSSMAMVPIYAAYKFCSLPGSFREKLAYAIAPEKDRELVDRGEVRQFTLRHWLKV

COC1Cc2ccccc2[C@]2(CC[C@H](N(C)CC3CCCCC3)CC2)O1 (some centres undefined)
Ki [1]: 0.0019 µM | Ki (Mu-type opioid receptor): 0.391 µM | inhibition (INH) (Cytochrome P450 3A4): Not Active | inhibition [2]: 0% | Activity (HepG2 [3]): Non-Toxic | Activity [4]: 60% | Activity [5]: inactive | inhibition [6]: Active | Activity (Sus scrofa): inactive | Ki [7]: 0.364 µM | Activity [8]: 62% | Activity [9]: inactive | inhibition (INH) (Cytochrome P450 2C19): Not Active | Activity (HepG2 [10]): Non-Toxic | Ki [11]: 0.012 µM | Ki [12]: 0.0073 µM | inhibition (INH) (Cytochrome P450 1A2): Not Active | Activity [13]: 93% | Ratio Ki [14]: 5 to 10

— ChEMBL document CHEMBL4385605, “Synthesis and Structure-Affinity Relationships of Spirocyclic Benzopyrans with Exocyclic Amino Moiety” (J Med Chem, 2019)
